Assay results from patent US10752587B2, “Homobispiperidinyl derivatives as liver X receptor beta agonists, compositions and their use” (Merck Sharp & Dohme Corp., priority 2015, dated 2020).
pEC50: −log10 of the molar value. Like-named read-outs stand apart in the source and are kept apart here.

Tests used:
[1] = molecular target: T1, glutathione-S-transferase (GST) tagged LXRbeta LBD (ligand binding domain) (Homo sapiens, UniProt P55055); test: LanthaScreen TR-FRET Liver X Receptor Coactivator Assay, co-activator recruitment to LXRbeta LBD; format: biochemical
T1 construct: purchased Invitrogen pv4658.pps
T1 sequence (P55055 222-460 limits assumed): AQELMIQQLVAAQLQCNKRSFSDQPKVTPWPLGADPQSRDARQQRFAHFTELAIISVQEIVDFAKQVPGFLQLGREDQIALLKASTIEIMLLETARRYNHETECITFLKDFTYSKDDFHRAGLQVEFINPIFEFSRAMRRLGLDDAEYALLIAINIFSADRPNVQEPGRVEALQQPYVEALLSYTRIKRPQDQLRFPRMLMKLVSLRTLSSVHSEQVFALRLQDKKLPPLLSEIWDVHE
Method in brief: (§1)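 TR-FRET coactivator recruitment; compound + LBD, then fluorescein-coactivator peptide/Tb-anti-GST Ab mix; RT incubation; IP and Emax vs T0901317.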

[2] = molecular target: T2, glutathione-S-transferase (GST) tagged LXRalpha LBD (ligand binding domain) (Homo sapiens, UniProt Q13133); test: LanthaScreen TR-FRET Liver X Receptor Coactivator Assay, co-activator recruitment to LXRalpha LBD; format: biochemical
T2 construct: purchased Invitrogen pv4655
T2 sequence (Q13133 209-447 limits assumed): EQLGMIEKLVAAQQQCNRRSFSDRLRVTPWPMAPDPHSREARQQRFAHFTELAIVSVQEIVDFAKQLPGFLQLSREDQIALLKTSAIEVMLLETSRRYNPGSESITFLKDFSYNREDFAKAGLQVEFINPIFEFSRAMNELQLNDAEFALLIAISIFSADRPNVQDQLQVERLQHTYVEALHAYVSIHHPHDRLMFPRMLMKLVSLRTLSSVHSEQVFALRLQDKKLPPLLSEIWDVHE
Method in brief: as §1

[3] = efficacy at max dose, in relation to reference dual agonist T0901317, read-out: LXR beta Activity @ max dose (%)
[4] = potency (Inflection Point, IP), co-activator recruitment to LXRbeta LBD, in relation to T0901317, read-out: LXR beta IP
[5] = efficacy at max dose, in relation to reference dual agonist T0901317, read-out: LXR alpha Activity @ max dose (%)
[6] = potency (Inflection Point, IP), co-activator recruitment to LXRalpha LBD, in relation to T0901317, read-out: LXR alpha IP
[7] = potency (Inflection Point, IP), co-activator recruitment to LXRalpha LBD, in relation to T0901317
[8] = read-out: LXR beta Activity @ max dose (%)
[9] = read-out: LXR alpha Activity @ max dose (%)
[10] = co-activator recruitment to GST-LXRbeta LBD, TR-FRET, read-out: LXR beta IP (Inflection Point, potency)
[11] = efficacy in relation to reference dual agonist T0901317, read-out: LXR beta Activity @ max dose
[12] = co-activator recruitment to GST-LXRalpha LBD, TR-FRET
[13] = efficacy in relation to reference dual agonist T0901317, read-out: LXR alpha Activity @ max dose
[14] = efficacy at max dose, in relation to reference dual agonist T0901317

SMILES	Emax [1, 3]	pEC50 [1, 4]	Emax [2, 5]	pEC50 [2, 6]	LXR alpha IP (nM) [2, 7]	further results
COc1cccc([C@@](O)(C(=O)N2CCC(OC3CCN(c4ccc(C(=O)N(C)C)c(Cl)c4)CC3)CC2)C(F)(F)F)c1 [Example 2-28, 2-chloro-N,N-dimethyl-4-[4-({1-[(2R)-3,3,3-trifluoro-2-hydroxy-2-(3-methoxyphenyl)propanoyl]piperidin-4-yl}oxy)piperidin-1-yl]benzamide]	87%	7.60	28%	5.76	–	–
CN(C)C(=O)c1ccc(N2CCC(CC3CCN(C(=O)[C@](O)(c4cccc(OC(F)F)c4)C(F)(F)F)CC3)CC2)cc1 [Example 2-134, 4-{4-[(1-{(2R)-2-[3-(difluoro-methoxy)phenyl]-3,3,3-trifluoro-2-hydroxy-propanoyl}piperidin-4-yl)methyl]piperidin-1-yl}-N,N-dimethyl-benzamide]	67%	6.92	18%	5.70	–	–
CN(C)C(=O)c1ccc(N2CCC(CC3CCN(C(=O)[C@@](O)(c4ccccc4)C(F)(F)F)CC3)CC2)cc1 [Example 2-127, N,N-dimethyl-4-[4-({1-[(2S)-3,3,3-trifluoro-2-hydroxy-2-phenyl-propanoyl]piperidin-4-yl}methyl)piperidin-1-yl]benzamide]	68%	6.06	9%	–	NO IP	–
CCc1cccc([C@@](O)(C(=O)N2CCC(C)(CC3CCN(c4ccc(C(=O)N(C)C)c(C)c4)CC3)CC2)C(F)(F)F)c1 [Example 2-78, 4-[4-({1-[(2R)-2-(3-ethylphenyl)-3,3,3-trifluoro-2-hydroxy-propanoyl]-4-methylpiperidin-4-yl}methyl)piperidin-1-yl]-N,N,2-trimethyl-benzamide]	20%	7.49	1%	–	NO IP	–
Cc1cc(N2CCC(CC3CCN(C(=O)C(O)(c4cccc(Cl)c4)C(F)(F)F)CC3)CC2)ncc1C(=O)N(C)C (stereo not drawn) [Example 7-4, 6-[4-({1-[2-(3-chlorophenyl)-3,3,3-trifluoro-2-hydroxypropanoyl]piperidin-4-yl}methyl)piperidin-1-yl]-N,N,4-trimethylpyridine-3-carboxamide]	–	7.28	–	5.88	–	Emax [1, 8]: 63%; Emax [2, 9]: 19%
COc1cccc(CS(=O)(=O)N2CC(CC3CCN(c4ccc(C(=O)N(C)C)c(Cl)n4)CC3)C2)c1 [Example 14-3, 2-chloro-6-[4({1-[(3-methoxybenzyl)-sulfonyl]azetidin-3-yl}methyl)piperidin-1-yl]-N,N-dimethyl-pyridine-3-carboxamide]	–	–	–	–	–	pEC50 [1, 10]: 5.82; Emax [1, 11]: 48%; LXR alpha IP (Inflection Point, potency) [2, 12]: NO IP; Emax [2, 13]: 5%
CN(C)C(=O)c1ccc(N2CCC(CC3CN(S(=O)(=O)c4ccccc4)C3)CC2)nc1Cl [Example 14-1, 2-chloro-N,N-dimethyl-6-(4-((1-(phenylsulfonyl)azetidin-3-yl)methyl)piperidin-1-yl)nicotinamide]	–	–	–	–	–	pEC50 [1, 10]: 7.36; Emax ([1]; read-out: LXR beta Activity @ max dose): 111%; pEC50 ([2]; co-activator recruitment to GST-LXRalpha LBD, TR-FRET, read-out: LXR alpha IP (Inflection Point, potency)): 5.46; Emax ([2]; read-out: LXR alpha Activity @ max dose): 55%
Cc1cc(N2CCC(CC3CCN(C(=O)[C@](O)(c4cccc(OC(C)C)c4)C(F)(F)F)CC3)CC2)ccc1C(=O)N(C)C [Example 2-147, N,N,2-trimethyl-4-{4-[(1-{(2R)-3,3,3-trifluoro-2-hydroxy-2-[3-(1-methylethoxy)phenyl]propanoyl}piperidin-4-yl)methyl]piperidin-1-yl}benzamide]	52%	7.72	7%	–	NO IP	–
CN(C)C(=O)c1ccc(N2CCC(CC3CCN(C(=O)C(O)(c4cccc(Cl)c4)C(F)(F)F)CC3)CC2)cc1Cl (stereo not drawn) [Example 2-17, 2-chloro-4-[4-({1-[2-(3-chlorophenyl)-3,3,3-trifluoro-2-hydroxy-propanoyl]piperidin-4-yl}methyl)piperidin-1-yl]-N,N-dimethyl-benzamide]	63%	7.96	24%	6.85	–	–
CN(C)C(=O)c1ccc(N2CCC(CC3CCN(S(=O)(=O)c4cccc(OC(F)(F)F)c4)CC3)CC2)cc1Cl [Example 13-16]	–	–	–	–	–	pEC50 [1, 10]: 6.87; Emax [1, 11]: 35%; LXR alpha IP (Inflection Point, potency) [2, 12]: NO IP; Emax [2, 13]: 0%
CN(C)C(=O)c1ccc(N2CCC(CC3CCN(C(=O)C(O)(c4ccccc4)c4ccccc4)CC3)CC2)nc1Cl [Example 7-95, 2-chloro-6-[4-({1-[hydroxy(diphenyl)acetyl]piperidin-4-yl}methyl)piperidin-1-yl]-N,N-dimethylpyridine-3-carboxamide]	–	–	–	–	NO IP	EC50 ([1]; LXR beta IP (nM), potency (Inflection Point, IP), co-activator recruitment to LXRbeta LBD, in relation to T0901317): 98 nM; Emax [1, 8]: 21%; Emax [2, 9]: 1%
CN(C)C(=O)c1ccc(N2CCC(CC3CCN(C(=O)[C@](O)(c4cccc(Cl)c4)C(F)(F)F)CC3)CC2)cc1 [Example 2-146, 4-[4-({1-[(2R)-2-(3-chloro-phenyl)-3,3,3-trifluoro-2-hydroxy-propanoyl]piperidin-4-yl}methyl)piperidin-1-yl]-N,N-dimethyl-benzamide]	–	7.48	–	–	NO IP	LXR beta Activity @ max dose (%) [1, 14]: 64%; LXR alpha Activity @ max dose (%) [2, 14]: 10%
CCc1cccc([C@@](O)(C(=O)N2CCC(C)(CC3CCN(c4ccc(C(=O)N(C)C)c(Cl)c4)CC3)CC2)C(F)(F)F)c1 [Example 2-52, 2-chloro-4-[4-({1-[(2R)-2-(3-ethyl-phenyl)-3,3,3-trifluoro-2-hydroxy-propanoyl]-4-methyl-piperidin-4-yl}methyl)piperidin-1-yl]-N,N-dimethyl-benzamide]	20%	7.82	0%	–	NO IP	–

The next lines start with results.

Emax [1, 3]	pEC50 [1, 4]	Emax [2, 5]	pEC50 [2, 6]	LXR alpha IP (nM) [2, 7]	SMILES	further results
64%	8.00	16%	–	NO IP	CC(C)Oc1cccc([C@@](O)(C(=O)N2CCC(C)(CC3CCN(c4ccc(C(=O)N(C)C)c(Cl)n4)CC3)CC2)C(F)(F)F)c1 [Example 7-48, 2-chloro-N,N-dimethyl-6-{4-[(4-methyl-1-{(2R)-3,3,3-trifluoro-2-hydroxy-2-[3-(1-methylethoxy)phenyl]propanoyl}piperidin-4-yl)methyl]piperidin-1-yl}pyridine-3-carboxamide]	–
77%	8.00	21%	6.45	–	CN(C)C(=O)c1ccc(N2CCC(CC3CCN(C(=O)C(O)(c4cccc(C(F)(F)F)c4)C(F)(F)F)CC3)CC2)nc1Cl (stereo not drawn) [Example 7-54, 2-chloro-N,N-dimethyl-6-{4-[(1-{3,3,3-trifluoro-2-hydroxy-2-[3-(trifluoromethyl)phenyl]propanoyl}piperidin-4-yl)methyl]piperidin-1-yl}pyridine-3-carboxamide]	–
53%	8.00	6%	–	NO IP	CCOc1cccc(C(O)(C(=O)N2CCC(CC3CCN(c4ccc(C(=O)N(C)C)c(Cl)n4)CC3)CC2)C(F)(F)F)c1 (stereo not drawn) [Example 7-77, 2-chloro-6-[4-({1-[2-(3-ethoxyphenyl)-3,3,3-trifluoro-2-hydroxypropanoyl]piperidin-4-yl}methyl)piperidin-1-yl]-N,N-dimethylpyridine-3-carboxamide]	–
28%	8.15	0%	–	NO IP	O=C(c1ccc(N2CCC(CC3CCN(C(=O)[C@](O)(c4cc(Cl)cc(Cl)c4)C(F)(F)F)CC3)CC2)cc1Cl)N1CCC[C@H]1CO [Example 4-24, (2R)-3-(4-{[1-(3-chloro-4-{[(2S)-2-(hydroxymethyl)pyrrolidin-1-yl]carbonyl}phenyl)piperidin-4-yl]methyl}piperidin-1-yl)-2-(3,5-dichlorophenyl)-1,1,1-trifluoro-3-oxopropan-2-ol]	–
82%	8.52	30%	7.15	–	CN(C)C(=O)c1ccc(N2CCC(CC3CCN(C(=O)[C@](O)(c4cccc(Cl)c4)C(F)(F)F)CC3)CC2)nc1Cl [Example 7-69, 2-chloro-6-[4-({1-[(2R)-2-(3-chlorophenyl)-3,3,3-trifluoro-2-hydroxypropanoyl]piperidin-4-yl}methyl)piperidin-1-yl]-N,N-dimethylpyridine-3-carboxamide]	–
